Molecular target: T1, TRAP1 enzyme (Homo sapiens, UniProt Q12931)
T1 sequence (Q12931 60-704): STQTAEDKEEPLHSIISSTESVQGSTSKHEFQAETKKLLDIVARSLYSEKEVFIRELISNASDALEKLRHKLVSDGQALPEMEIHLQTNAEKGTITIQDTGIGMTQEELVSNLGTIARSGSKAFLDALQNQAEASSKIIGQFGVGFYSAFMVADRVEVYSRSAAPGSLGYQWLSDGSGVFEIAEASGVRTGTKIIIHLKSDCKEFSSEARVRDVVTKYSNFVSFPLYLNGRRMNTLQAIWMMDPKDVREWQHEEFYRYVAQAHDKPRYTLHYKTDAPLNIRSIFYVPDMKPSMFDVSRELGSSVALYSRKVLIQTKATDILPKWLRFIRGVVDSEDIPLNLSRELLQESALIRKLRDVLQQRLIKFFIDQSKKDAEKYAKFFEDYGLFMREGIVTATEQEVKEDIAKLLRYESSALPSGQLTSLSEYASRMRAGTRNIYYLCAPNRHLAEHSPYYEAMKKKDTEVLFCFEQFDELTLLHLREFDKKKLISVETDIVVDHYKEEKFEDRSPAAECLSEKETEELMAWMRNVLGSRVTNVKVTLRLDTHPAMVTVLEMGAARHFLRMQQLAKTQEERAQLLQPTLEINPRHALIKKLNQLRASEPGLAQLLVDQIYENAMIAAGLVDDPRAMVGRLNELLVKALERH
Test: Malachite green phosphate assay of TRAP1 ATPase activity
Assay type: biochemical
Conditions: for EC50: TRAP1 ATPase activation, 150 nM Trap1, 20 μM ATP, geometric mean, read-out: Malachite Green Fluor DRC: GeoMean EC50; for Emax: read-out: Malachite Green Fluor DRC: Mean Emax
How it was run: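 Compound (0.78 μM-100 μM) preincubated with 150 nM TRAP1 in 50 mM HEPES pH 7.5, 20 mM KCl, 4 mM MgCl2, 0.05% BSA, 30 min at 37 °C; reaction started with 20 μM ATP, 180 min at 37 °C. Phosphate quantified by malachite green against a standard curve; Emax and EC50 from sigmoidal fits of activation.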

CCc1ccc(NC(=O)c2cnc(C(F)(F)F)[nH]2)cc1S(=O)(=O)Nc1ccc(C)cc1 [Compound 270]
EC50: 10 to 20 µM | Emax: 200 to 300%

COc1ccc(NC(=O)c2cnc(-c3ccccc3)[nH]2)cc1S(=O)(=O)Nc1ccccc1C [Compound 201]
EC50: 10 to 20 µM | Emax: 160 to 199%

COc1ccc(NC(=O)c2cnc(-c3ccccc3)[nH]2)cc1S(=O)(=O)N1Cc2ccc(F)cc2C1 [Compound 200]
EC50: < 10 µM | Emax: 160 to 199%

CC1(C)CCN(S(=O)(=O)c2cccc(NC(=O)c3cnc(-c4ccccc4)[nH]3)c2)c2ccc(Cl)cc21 [Compound 534]
EC50: 20 to 100 µM | Emax: 200 to 300%

O=C(Nc1ccc(F)c(S(=O)(=O)Nc2ccc(Cl)cc2)c1)c1cc(Cl)ncc1C(F)(F)F [Compound 743]
EC50: 20 to 100 µM | Emax: 200 to 300%

COc1ccc(NC(=O)c2ccccc2C(F)(F)F)cc1S(=O)(=O)N1CCCCC1 [Compound 41]
EC50: 10 to 20 µM | Emax: 160 to 199%

COc1ccc(NC(=O)c2cnc(-c3ccccc3)[nH]2)cc1S(=O)(=O)Nc1ccc(F)cc1 [Compound 171]
EC50: < 10 µM | Emax: 200 to 300%

COc1ccc(NC(=O)c2cccn2-c2ccccc2)cc1S(=O)(=O)Nc1c(C)cccc1C [Compound 1042]
EC50: < 10 µM | Emax: 160 to 199%

COc1ccc(NC(=O)c2ncc(-c3ccccc3)s2)cc1S(=O)(=O)Nc1c(C)cccc1C [Compound 449]
EC50: 10 to 20 µM | Emax: 123 to 159%

COc1ccc(NC(=O)c2nccs2)cc1S(=O)(=O)Nc1ccc(F)cc1 [Compound 345]
EC50: 20 to 100 µM | Emax: 200 to 300%

COc1ccc(NC(=O)c2cnc(C(F)(F)F)[nH]2)cc1S(=O)(=O)N(CCCCCC(=O)O)c1ccc(Br)cc1 [Compound 264]
EC50: 10 to 20 µM | Emax: 160 to 199%

COc1ccc(NC(=O)c2cnc(C(F)(F)F)[nH]2)cc1S(=O)(=O)Nc1ccc(Br)cc1 [Compound 105]
EC50: 20 to 100 µM | Emax: 200 to 300%

O=C(Nc1cccc(S(=O)(=O)Nc2ccc(Br)cc2)c1)c1ncco1 [Compound 302]
EC50: 20 to 100 µM | Emax: 160 to 199%

COc1ccc(NC(=O)c2cnc(C(F)(F)F)[nH]2)cc1S(=O)(=O)N(CCCCN1CCOCC1)c1ccc(Br)cc1 [Compound 430, N-(3-(N-(4-bromophenyl)-N-(4-morpholinobutyl)sulfamoyl)-4-methoxyphenyl)-2-(trifluoromethyl)-1H-imidazole-5-carboxamide]
EC50: 20 to 100 µM | Emax: 200 to 300%

COc1ccc(NC(=O)c2cnc(C(F)(F)F)[nH]2)cc1S(=O)(=O)Nc1ccc(C(C)(C)C)cc1 [Compound 360]
EC50: 20 to 100 µM | Emax: 200 to 300%

COc1ccc(NC(=S)c2ncco2)cc1S(=O)(=O)Nc1ccc(Cl)cc1 [Compound 598, N-(3-(N-(4-chlorophenyl)sulfamoyl)-4-methoxyphenyl) oxazole-2-carbothioamide]
EC50: 20 to 100 µM | Emax: 200 to 300%

O=C(Nc1ccc(OC(F)(F)F)c(S(=O)(=O)Nc2c(Cl)cccc2Cl)c1)c1cnc(-c2ccccc2)o1 [Compound 655]
EC50: < 10 µM | Emax: 160 to 199%

COc1ccc(NC(=O)c2cnc(-c3ccccc3)[nH]2)cc1S(=O)(=O)N(C)c1ccc(Br)cc1 [Compound 164]
EC50: 20 to 100 µM | Emax: 160 to 199%

COc1ccc(NC(=O)c2cnc(C(F)(F)F)[nH]2)cc1S(=O)(=O)N1Cc2cccc(F)c2C1 [Compound 225]
EC50: 10 to 20 µM | Emax: 160 to 199%

CCCN(c1ccc(Br)cc1)S(=O)(=O)c1cccc(NC(=O)c2ncco2)c1 [Compound 303]
EC50: 10 to 20 µM | Emax: 160 to 199%

CCOC(=O)CCCCCN(c1ccc(Br)cc1)S(=O)(=O)c1cc(NC(=O)c2cnc(C(F)(F)F)[nH]2)ccc1OC [Compound 263]
EC50: 10 to 20 µM | Emax: 160 to 199%

COc1ccc(NC(=O)c2oc(-c3ccccc3)nc2C)cc1S(=O)(=O)Nc1ccc(Cl)cc1 [Compound 488]
EC50: 10 to 20 µM | Emax: 200 to 300%

COc1ccc(NC(=O)c2cnc[nH]2)cc1S(=O)(=O)N(CCCCCCO)c1ccc(Br)cc1 [Compound 246, N-(3-(N-(4-bromophenyl)-N-(6-hydroxyhexyl)sulfamoyl)-4-methoxyphenyl)-1H-imidazole-5-carboxamide]
EC50: 20 to 100 µM | Emax: 200 to 300%

COc1ccc(NC(=O)c2nc(Br)ccc2C)cc1S(=O)(=O)Nc1ccc(Cl)cc1 [Compound 537]
EC50: 10 to 20 µM | Emax: 200 to 300%

COc1ccc(NC(=O)c2cnc(C(F)(F)F)[nH]2)cc1S(=O)(=O)Nc1ccc(F)cc1C [Compound 348]
EC50: 20 to 100 µM | Emax: 200 to 300%

COc1ccc(NC(=O)c2cnc[nH]2)cc1S(=O)(=O)N(CCCCCCBr)c1ccc(Br)cc1 [Compound 251, N-(3-(N-(6-bromohexyl)-N-(4-bromophenyl)sulfamoyl)-4-methoxyphenyl)-1H-imidazole-5-carboxamide]
EC50: < 10 µM | Emax: 200 to 300%

COc1ccc(NC(=O)c2cnc[nH]2)cc1S(=O)(=O)Nc1ccc(C(C2N=N2)C(F)(F)F)cc1 (centres unmarked) [Compound 398]
EC50: 20 to 100 µM | Emax: 123 to 159%

Cc1ncoc1C(=O)Nc1cccc(S(=O)(=O)N(c2ccc(Cl)cc2)C(C)C)c1 [Compound 551]
EC50: 10 to 20 µM | Emax: 160 to 199%

O=C(Nc1ccc(F)c(S(=O)(=O)Nc2ccc(Br)cc2)c1)c1cnc(-c2ccccc2)[nH]1 [Compound 168]
EC50: 10 to 20 µM | Emax: 200 to 300%

COc1ccc(NC(=O)c2cnc(C(F)(F)F)[nH]2)cc1S(=O)(=O)N(CCCCN1CCCC1)c1ccc(Br)cc1 [Compound 437]
EC50: 20 to 100 µM | Emax: 160 to 199%

O=C(Nc1ccc(F)c(S(=O)(=O)Nc2ccc(F)cc2)c1)c1ncco1 [Compound 314]
EC50: 20 to 100 µM | Emax: 123 to 159%

COc1ccc(NC(=O)c2cnc(C(F)(F)F)[nH]2)cc1S(=O)(=O)Nc1ccccc1C [Compound 232]
EC50: < 10 µM | Emax: 123 to 159%

COc1ccc(NC(=O)c2ncco2)cc1S(=O)(=O)N1CCOCC1 [Compound 309]
EC50: 20 to 100 µM | Emax: 123 to 159%

COc1ccc(NC(=O)c2cnc(-c3ccccc3)[nH]2)cc1S(=O)(=O)Nc1ccncc1 [Compound 213]
EC50: 20 to 100 µM | Emax: 160 to 199%

From US20230174523A1, “BENZENESULFONAMIDE DERIVATIVES AS TRAP1 MODULATORS AND USES THEREOF” (Amathus Therapeutics, Inc., priority 2020, published 2023)
